Assay results taken from article PMC12339163, “Combining Plant Bioactives With Antibiotics for Enhanced Antibiofilm Activity Against Uropathogenic Staphylococcus spp. and Cytotoxicity Evaluation” (Advances in Pharmacological and Pharmaceutical Sciences, 2025).
Values after ≈ are worked out from the molar mass of the structure shown. Values joined by “and” are separate entries in the source; they are usually repeats but may differ in a detail not shown here. Identical values can stand only once. Like-named read-outs stand apart in the source and are kept apart here. One block for each compound: values may come before it.

Columns and labels:
S. saprophyticus = test: MIC and MBC, broth microdilution; format: cell-based, Staphylococcus saprophyticus; conditions: Staphylococcus saprophyticus, geometric mean, S. saprophyticus (n = 3); for MBC: read-out: MBC; for MIC: read-out: MIC
Method: (§1) Seven clinical isolates of Staphylococcus spp. including 2 S. aureus, 3 S. saprophyticus, and 2 S. epidermidis were used. They were isolated from urine samples in our previous study. Two reference strains (S. aureus ATCC1026 and S. epidermidis ATCC35984) obtained from the American Type Culture Collection were also included. They were kept in the mixture of glycerol and Mueller Hinton Broth (MHB) (1:1) at −20°C, and the activation was achieved using the streak technique on Mueller Hinton agar (MHA) medium.
(§2) The MICs of ATBs and NPs were determined by the broth microdilution method as previously described. NPs and ATBs were, respectively, prepared at 4096 µg/mL and 512 µg/mL and serially diluted twofold with MHB in a 96-well microplate at a volume of 100 µL. Then, the wells were filled with 100 µL of inoculum (1.5 × 10^6 CFU/mL) to give final concentrations ranging from 1024 µg/mL to 0.5 µg/mL and 128 µg/mL to 0.062 µg/mL of NPs and ATBs, respectively. The microplates were incubated for 24 h at 37°C. Wells containing only bacterial inoculum were used as the negative control. After incubation, a volume of 40 µL of INT solution (0.2 mg/mL) was added to each well, and the microplate was incubated at 37°C for 30 min. Viable bacteria cells change the yellow dye of INT to a pink color. The MIC was considered as the lowest concentration of the sample at which there was no change in the coloration of the medium, corresponding to the complete inhibition of microbial growth.
(§3) All tests were performed in triplicate.

S. epidermidis biofilm = test: Biofilm inhibition assay (MBIC, MTT); format: cell-based, Staphylococcus epidermidis; conditions: Staphylococcus epidermidis, 24 h; geometric mean, S. epidermidis (n = 3)
Method: (§4) The biofilm formation inhibitory activity of NPs and ATBs was carried out according to the method previously described. A total of 100 µL of bacterial inoculum (1.5 × 10^6 CFU/mL) was used, and 100 µL of each sample was added to the microplate to achieve final concentrations ranging from 0.25 µg/mL to 128 µg/mL for ATBs and from 8 µg/mL to 1024 µg/mL for NPs. Then, the microplate was incubated at 37°C for 24 h. After incubation, the plates were gently emptied and washed three times with a phosphate buffer solution at pH 7.2. Then, the MTT solution (0.5 mg/mL) prepared in PBS was introduced into each well, and the microplate was further incubated at 37°C for 24 h. Untreated wells containing bacterial suspension and MHB supplemented with 1% glucose were considered positive controls, and wells containing only MHB+1% glucose without bacteria were used as blanks. After incubation, the MTT solution was aspirated, then 150 µL of DMSO was introduced to dissolve the formazan crystal formed by viable bacteria, and the optical density (OD) was measured at 570 nm using a microplate reader (VERSA-max). The percentage of biofilm inhibition was calculated using the formula below, and the minimal biofilm inhibitory concentration (MBIC) was recorded as the lowest concentration of NPs or ATBs that inhibited 100% of biofilm:(1) % biofilm inhibition=ODcontrol−ODblank−ODtest−ODblank/ODcontrol−ODblank×100.

[1] = system: Staphylococcus epidermidis biofilm; test: Checkerboard combination assay, biofilm eradication; format: cell-based; conditions: for MBEC Alone ATB: antibiotic alone
Method: The effect of the combination of ATBs with NPs on the preformed biofilm was evaluated by determining the FICI, as described above for biofilm formation, with slight modifications. After biofilm formation for 24 h, the plate was gently emptied and washed three times with PBS. Then, 50 µL of ATBs and 50 µL of NPs were introduced to the plate. The final concentration ranges from 0.0625 to 128 µg/mL and from 4 to 512 µg/mL for ATBs and NPs, respectively, and is incubated at 37°C for 24 h. After incubation, the medium was gently removed, and the plate was washed three times with PBS. At the end of the incubation time, the MTT reduction assay was performed, and the MBEC was determined. To assess the effect of the combination, the FICI was calculated and interpreted as described above.

S. aureus = test: MIC and MBC, broth microdilution; format: cell-based, Staphylococcus aureus; conditions: Staphylococcus aureus, geometric mean, S. aureus (n = 3); for MBC: read-out: MBC; for MIC: read-out: MIC
Method: as §1, §2, §3

S. aureus biofilm = test: Biofilm eradication assay (MBEC, MTT); format: cell-based, Staphylococcus aureus; conditions: Staphylococcus aureus, 24 h; geometric mean, S. aureus (n = 3)
Method: (§5) The determination of the biofilm eradication potential of NPs and ATBs was performed as previously described. Briefly, 100 µL of bacterial inoculum (1.5 × 10^6 CFU/mL) and 100 µL of MHB + 1% glucose were introduced into the microplate, incubated at 37°C for 24 h, and the microplate was gently emptied and washed three times with PBS. Then, 200 µL of ATBs or NPs at respective concentrations ranging from 8 to 1024 µg/mL and from 16 to 2048 µg/mL were incubated at 37°C for 24 h. Once incubation was completed, the microplate was processed as described above, and the percentage of biofilm eradication was calculated using the formula below. The minimal biofilm eradicating concentration (MBEC) was recorded as the lowest concentration of the test sample that reduces 100% of biofilm:(2) % biofilm eradication=ODcontrol−ODblank−ODtest−ODblank/ODcontrol−ODblank×100.

S. saprophyticus biofilm [2] = test: Biofilm inhibition assay (MBIC, MTT); format: cell-based, Staphylococcus saprophyticus; conditions: Staphylococcus saprophyticus, 24 h; geometric mean, S. saprophyticus (n = 3)
Method: as §4

S. saprophyticus biofilm [3] = test: Biofilm eradication assay (MBEC, MTT); format: cell-based, Staphylococcus saprophyticus; conditions: Staphylococcus saprophyticus, 24 h; geometric mean, S. saprophyticus (n = 3)
Method: as §5

[4] = system: Staphylococcus aureus biofilm; test: Checkerboard combination assay, biofilm inhibition; format: cell-based; conditions: for MBIC alone, ATB: antibiotic alone
Method: (§6) The effect of the combination of ATBs with NPs on biofilm formation was evaluated by determining the FICI, as described above for planktonic cells, except that the MHB was supplemented with 1% glucose.
(§7) The lowest MBICs of ATBs or NPs that inhibited metabolic activity in the biofilm were determined as described above. The FICI was used to perform the effect of combination and calculated as follows: FICI: (MBIC of ATBs in combinations/MBIC of ATBs alone) + (MBIC of NP in the combinations/MBIC of NP alone). FICI was interpreted as indicated above.

[5] = system: Staphylococcus epidermidis biofilm; test: Checkerboard combination assay, biofilm inhibition; format: cell-based
Method: as §6, §7

[6] = system: Staphylococcus saprophyticus biofilm; test: Checkerboard combination assay, biofilm inhibition; format: cell-based
Method: as §6, §7

[7] = S. epidermidis biofilm eradication, mean MBEC
[8] = S. epidermidis, biofilm inhibition, mean
[9] = antibiotic alone, S. epidermidis biofilm inhibition
[10] = S. saprophyticus, biofilm inhibition, mean
[11] = antibiotic alone, S. saprophyticus biofilm inhibition
[12] = natural product alone, S. aureus biofilm inhibition
[13] = natural product alone, S. epidermidis biofilm inhibition
[14] = natural product alone, S. saprophyticus biofilm inhibition

SMILES: CC1(C)S[C@@H]2[C@H](NC(=O)[C@H](N)c3ccc(O)cc3)C(=O)N2[C@H]1C(=O)O [Amoxicillin, amoxicillin]
MBC (S. saprophyticus; antibiotics): > 128 µg/mL | MIC (S. saprophyticus): 22 µg/mL (≈ 60.2 µM) | minimal effective concentration (S. epidermidis biofilm): 2.08 µg/mL | MBEC Alone ATB [1, 7]: 16 µg/mL | MBC (S. aureus; antibiotics): > 128 µg/mL | MIC (S. aureus): 86.7 µg/mL (≈ 237 µM) | minimal effective concentration (S. aureus biofilm): 37.3 µg/mL | minimal effective concentration (S. saprophyticus biofilm [2]): 9 µg/mL | minimal effective concentration (S. saprophyticus biofilm [3]): 9.33 µg/mL | MBIC alone, ATB ([4]; S. aureus biofilm inhibition): 1.5 µg/mL | MBIC alone, ATB [5, 8]: 2.08 µg/mL | MBIC alone, ATB [5, 9]: 2.08 µg/mL | MBIC alone, ATB [6, 10]: 8.33 µg/mL | MBIC alone, ATB [6, 11]: 8.33 µg/mL

SMILES: CC1=CC(=O)c2c(O)cccc2C1=O [Plumbagin, plumbagin]
MIC (S. saprophyticus): 8.66 µg/mL (≈ 46 µM) | MBC (S. saprophyticus; natural products): > 1020 µg/mL | minimal effective concentration (S. epidermidis biofilm): 8 µg/mL | MBEC Alone NPs ([1]; S. epidermidis, biofilm eradication, mean, listed as Plu): 13.33 µg/mL and 16 µg/mL | MIC (S. aureus): 6 µg/mL (≈ 31.9 µM) | MBC (S. aureus; natural products): > 1020 µg/mL | minimal effective concentration (S. aureus biofilm): 32 µg/mL | minimal effective concentration (S. saprophyticus biofilm [2]): 6.66 µg/mL | minimal effective concentration (S. saprophyticus biofilm [3]): 10.7 µg/mL | MBIC alone, NPs ([4]; S. aureus, biofilm inhibition, mean): 10.66 µg/mL | MBIC alone, NPs ([4]; natural product alone, S. aureus biofilm inhibition, listed as Pb): 10.66 µg/mL | MBIC alone, NPs [5, 8]: 8 µg/mL | MBIC alone, NPs [5, 13]: 8 µg/mL | MBIC alone, NPs [6, 10]: 16 µg/mL | MBIC alone, NPs [6, 14]: 6.66 µg/mL

SMILES: COc1ccc2cc3[n+](cc2c1OC)CCc1cc2c(cc1-3)OCO2 [Berberine, berberine]
MIC (S. saprophyticus): 149 µg/mL | MBC (S. saprophyticus; natural products): > 1020 µg/mL | MBEC Alone NPs ([1]; S. epidermidis biofilm eradication, natural product alone, mean MBEC, listed as Ber): 170.66 µg/mL and 149.33 µg/mL and 213.33 µg/mL | MIC (S. aureus): 139 µg/mL | MBC (S. aureus; natural products): > 1020 µg/mL | minimal effective concentration (S. aureus biofilm): 149 µg/mL | minimal effective concentration (S. saprophyticus biofilm [2]): 85.3 µg/mL | minimal effective concentration (S. saprophyticus biofilm [3]): 171 µg/mL | MBIC alone, NPs [4, 12]: 170.66 µg/mL | MBIC alone, NPs [6, 10]: 106.66 µg/mL | MBIC alone, NPs ([6]; natural product alone, S. saprophyticus biofilm inhibition, listed as Ber): 74.66 µg/mL and 85.33 µg/mL and 106.66 µg/mL

SMILES: O=c1c(O)c(-c2ccc(O)c(O)c2)oc2cc(O)cc(O)c12 [Quercetin, quercetin]
MIC (S. saprophyticus): 341 µg/mL (≈ 1130 µM) | MBC (S. saprophyticus; natural products): > 1020 µg/mL | minimal effective concentration (S. epidermidis biofilm): 512 µg/mL | MIC (S. aureus): 341 µg/mL (≈ 1130 µM) | MBC (S. aureus; natural products): > 1020 µg/mL | minimal effective concentration (S. aureus biofilm): 128 µg/mL | minimal effective concentration (S. saprophyticus biofilm [2]): 427 µg/mL | minimal effective concentration (S. saprophyticus biofilm [3]): 171 µg/mL | MBIC alone, NPs ([4]; natural product alone, S. aureus biofilm inhibition, listed as Que): 426.66 µg/mL and 512 µg/mL and 362.66 µg/mL | MBIC alone, NPs ([5]; natural product alone, S. epidermidis biofilm inhibition, listed as Que): 512 µg/mL and 384 µg/mL | MBIC alone, NPs ([6]; natural product alone, S. saprophyticus biofilm inhibition, listed as Que): 426.66 µg/mL and 512 µg/mL

The next lines start with results.

MIC (S. saprophyticus): 427 µg/mL (≈ 2510 µM) | MIC (S. aureus): 427 µg/mL (≈ 2510 µM)
SMILES: O=C(O)c1cc(O)c(O)c(O)c1 [Gallic acid, 3,4,5-trihydroxybenzoic acid]
MBC (S. saprophyticus; natural products): > 1020 µg/mL | minimal effective concentration (S. epidermidis biofilm): 512 µg/mL | MBEC Alone NPs ([1]; S. epidermidis biofilm eradication, natural product alone, mean MBEC, listed as Gal): 266.66 µg/mL and 298.66 µg/mL and 426.66 µg/mL | MBC (S. aureus; natural products): > 1020 µg/mL | minimal effective concentration (S. aureus biofilm): 299 µg/mL | minimal effective concentration (S. saprophyticus biofilm [2]): 427 µg/mL | minimal effective concentration (S. saprophyticus biofilm [3]): 299 µg/mL | MBIC alone, NPs [4, 12]: 512 µg/mL | MBIC alone, NPs [5, 13]: 512 µg/mL | MBIC alone, NPs [6, 14]: 426.66 µg/mL

MIC (S. saprophyticus): 192 µg/mL (≈ 423 µM) | MIC (S. aureus): 213 µg/mL (≈ 470 µM)
SMILES: C=CC1=C(C(=O)O)N2C(=O)[C@@H](NC(=O)/C(=N\OCC(=O)O)c3csc(N)n3)[C@H]2SC1 [Cefixime, cefixime]
MBC (S. saprophyticus; antibiotics): > 128 µg/mL | minimal effective concentration (S. epidermidis biofilm): 64 µg/mL | MBEC Alone ATB [1, 7]: 42.66 µg/mL | MBC (S. aureus; antibiotics): > 128 µg/mL | minimal effective concentration (S. aureus biofilm): 42.7 µg/mL | minimal effective concentration (S. saprophyticus biofilm [2]): 48 µg/mL | minimal effective concentration (S. saprophyticus biofilm [3]): 48 µg/mL | MBIC alone, ATB ([4]; S. aureus biofilm inhibition): 64 µg/mL | MBIC alone, ATB [5, 9]: 64 µg/mL | MBIC alone, ATB [6, 11]: 48 µg/mL

MIC (S. saprophyticus): 171 µg/mL (≈ 463 µM) | MIC (S. aureus; 24 h): 244 µg/mL (≈ 661 µM)
SMILES: COc1cc(/C=C/C(=O)CC(=O)/C=C/c2ccc(O)c(OC)c2)ccc1O [Curcumin, curcumin]
MBC (S. saprophyticus; natural products): > 1020 µg/mL | minimal effective concentration (S. epidermidis biofilm): 128 µg/mL | MBEC Alone NPs ([1]; S. epidermidis biofilm eradication, natural product alone, mean MBEC, listed as Cur): 106.66 µg/mL and 128 µg/mL | MBC (S. aureus; natural products): > 1020 µg/mL | minimal effective concentration (S. aureus biofilm): 149 µg/mL | minimal effective concentration (S. saprophyticus biofilm [2]): 107 µg/mL | minimal effective concentration (S. saprophyticus biofilm [3]): 171 µg/mL | MBIC alone, NPs [5, 8]: 128 µg/mL | MBIC alone, NPs [5, 13]: 128 µg/mL | MBIC alone, NPs [6, 10]: 106.66 µg/mL
